The test concerns A549 cells. It is filed as cell-based, human. Particulars: 24 h. As to the method: Cells were seeded in 96‐well cell culture plates (8000/well) and allowed to grow for 48 h. After washing with PBS, cells were fixed with 50% trichloroacetic acid and stained with SRB for 20 min. Excess SRB was removed, and cells were washed with 1% acetic acid. SRB extraction was done using 100 mM Tris‐base, and absorbance at 510 nm was determined using an Infinite M1000 plate reader (Tecan, Männedorf, Switzerland).
Fig. 7 PSD‐interacting peptides bind to PSD, inhibiting its activity, and when cell‐penetrating and mitochondria‐ or nucleus‐targeted, inhibit cell proliferation. […] (B) Inhibition of PSD activity by the 2F3 (●) or 1C11 (○) peptide. PSD activity was measured using the DSB‐3 method. (C‐E) Cell proliferation inhibition following incubation of A549 cells with the indicated mitochondria‐ or nucleus‐targeted peptides for 24 h in a serum‐free medium, and cell proliferation was assayed using the SRB method. Results are the means ± SEM (n = 3). (F) A549 cells were incubated for 90 min with 5 µM of the mitochondria‐ or nucleus‐targeted FITC‐labelled peptides, immunostained with anti‐SMAC antibodies and with DAPI and visualized by confocal microscope for subcellular localization. (a) and (b) present higher magnification, white arrows point to possible nuclear localization of the peptide, and blue arrows to its colocalization with mitochondria marker (n = 3). Scale bars represent 20, 10 µm as indicated.
Table S4. Effects of peptide identified as interacting with PSD or their interaction with SMAC/Diablo is prevented in the presence of PSD on A549 lung cancer cell growth A549 cells were seeded in 96-well plate (7000 cells/well). After 24 h cells were incubated without or with the indicated peptide concentration for 24 h in a serum-free medium. Then, cells were washed with PBS, and analyzed for cell growth using the SRB method. Results are the mean ± SD (n=3). Peptide sequence, its identification manner, based on interacting with PSD or their interaction with SMAC/Diablo is prevented in the presence of PSD are shown. In addition, the peptides are presented with the cell penetrating peptide targeting to the mitochondria or the nucleus. The results are presented as the concentration required for 50% inhibition (IC50).
No Peptide spot and Protein/Function Peptide and Cellular IC50 […]
ALSTSSPIPSVPQSQ transcriptional coactivator 2 Mitochondria (A) […]
AQPQTGSGAS truncated poly Q, transcriptional H-(D-Arg)–Dmt–Orn–Phe- 2F3 >100 Interacting with PSD coactivator for NOTCH proteins, Mitochondria promotes proliferative signaling R-{D-Arg}-RK- 2F3 28.9±5.2 during neurogenesis (Nucleus). Nucleus […]
PNQSSRAFQGTDHS transcriptional coactivator 2 Mitochondria
SDLAFDFLSQQ truncated poly Q, A transcriptional D-Arg–Dmt–Orn–Phe-2I8 66.8±4.7 Identified by PSD coactivator for NOTCH proteins, Mitochondria preventing SMAC promotes proliferative signaling R-{D-Arg}-RK-2I8 >100 interaction with it during neurogenesis (Nucleus). Nucleus […]
ALLTSGTSDPRARV protease promotes cell death either Mitochondria […]
TYGTPSLWARL by direct binding to IAPs proteins D-Arg–Dmt–Orn–Phe -1C11 89.3±5.49 Interacting with PSD leading to increased caspase Mitochondria activity or caspase-independent and serine protease activity-dependent R-{D-Arg}-RK- 1C11 66.5±3.9 mechanism. (Mitochondrion Nucleus intermembrane space). 1C11- R-{D-Arg}-RK 30.0±3.8 […]
ELYRMSTYSTFPAG Acts as an E3 ubiquitin-protein Mitochondria
VPVSERSLARA ligase, regulator of NF-kappa-B 1E14- D-Arg–Dmt–Orn–Phe >100 Identified by PSD signaling, apoptosis, cell Mitochondria preventing SMAC proliferation, cell invasion and R-{D-Arg}-RK-1E14 >100 interaction with it metastasis, modulates inflammatory Nucleus signaling, (Cytosol, nucleus and […]

The record followed here is publication PMC8564633, “SMAC/Diablo controls proliferation of cancer cells by regulating phosphatidylethanolamine synthesis” (Molecular Oncology, 2021).

Read-outs that look alike come from different tables or passages of the source. Non-standard residues stand in square brackets, D forms with d. Residues, ends and D or L forms follow the SMILES beside them. Dmt = Cc1cc(O)cc(C)c1C[C@H](N)C(=O)O; Orn = NCCC[C@H](N)C(=O)O

As for `CSCC[C@H](NC(=O)[C@H](CCCNC(=N)N)NC(=O)[C@H](Cc1ccc(O)cc1)NC(=O)[C@H](CC(C)C)NC(=O)[C@H](CCC(=O)O)NC(=O)[C@H](CCCCN)NC(=O)[C@H](CCCNC(=N)N)NC(=O)[C@@H](CCCNC(=N)N)NC(=O)[C@@H](N)CCCNC(=N)N)C(=O)N[C@@H](CO)C(=O)N[C@H](C(=O)N[C@@H](Cc1ccc(O)cc1)C(=O)N[C@@H](CO)C(=O)N[C@H](C(=O)N[C@@H](Cc1ccccc1)C(=O)N1CCC[C@H]1C(=O)N[C@@H](C)C(=O)NCC(=O)N[C@H](C(=O)N1CCC[C@H]1C(=O)N[C@H](C(=O)N[C@@H](CO)C(=O)N[C@@H](CCC(=O)O)C(=O)N[C@@H](CCCNC(=N)N)C(=O)N[C@@H](CO)C(=O)N[C@@H](CC(C)C)C(=O)N[C@@H](C)C(=O)N[C@@H](CCCNC(=N)N)C(=O)N[C@@H](C)C(=O)O)C(C)C)C(C)C)[C@@H](C)O)[C@@H](C)O` [R-{D-Arg}-RK-1E14] (H-R[dR]RKELYRMSTYSTFPAGVPVSERSLARA-OH; N-terminus and C-terminus assumed), the IC50 is > 100 µM.
The same measure, in the same setting: for `Cc1cc(O)cc(C)c1C[C@H](NC(=O)[C@@H](CCCNC(=N)N)NC(=O)[C@H](CCC(N)=O)NC(=O)[C@H](CCC(N)=O)NC(=O)[C@H](CO)NC(=O)[C@H](CC(C)C)NC(=O)[C@H](Cc1ccccc1)NC(=O)[C@H](CC(=O)O)NC(=O)[C@H](Cc1ccccc1)NC(=O)[C@H](C)NC(=O)[C@H](CC(C)C)NC(=O)[C@H](CC(=O)O)NC(=O)[C@H](CO)NC(=O)[C@H](CO)NC(=O)[C@H](Cc1c[nH]cn1)NC(=O)[C@H](CC(=O)O)NC(=O)[C@@H](NC(=O)CNC(=O)[C@H](CCC(N)=O)NC(=O)[C@H](Cc1ccccc1)NC(=O)[C@H](C)NC(=O)[C@H](CCCNC(=N)N)NC(=O)[C@H](CO)NC(=O)[C@H](CO)NC(=O)[C@H](CCC(N)=O)NC(=O)[C@H](CC(N)=O)NC(=O)[C@@H]1CCCN1)[C@@H](C)O)C(=O)N[C@@H](CCCN)C(=O)N[C@@H](Cc1ccccc1)C(N)=O` [2I8- (D-Arg)-Dmt-Orn-Phe-NH2] (H-PNQSSRAFQGTDHSSDLAFDFLSQQ[dR][Dmt][Orn]F-NH2; N-terminus assumed) the value was 30.2 ± 3.6 µM; for `CC(C)C[C@H](NC(=O)[C@H](CC(=O)O)NC(=O)[C@H](CO)NC(=O)[C@H](CO)NC(=O)[C@H](Cc1c[nH]cn1)NC(=O)[C@H](CC(=O)O)NC(=O)[C@@H](NC(=O)CNC(=O)[C@H](CCC(N)=O)NC(=O)[C@H](Cc1ccccc1)NC(=O)[C@H](C)NC(=O)[C@H](CCCNC(=N)N)NC(=O)[C@H](CO)NC(=O)[C@H](CO)NC(=O)[C@H](CCC(N)=O)NC(=O)[C@H](CC(N)=O)NC(=O)[C@@H]1CCCN1)[C@@H](C)O)C(=O)N[C@@H](C)C(=O)N[C@@H](Cc1ccccc1)C(=O)N[C@@H](CC(=O)O)C(=O)N[C@@H](Cc1ccccc1)C(=O)N[C@@H](CC(C)C)C(=O)N[C@@H](CO)C(=O)N[C@@H](CCC(N)=O)C(=O)N[C@@H](CCC(N)=O)C(=O)N[C@@H](CCCNC(=N)N)C(=O)N[C@H](CCCNC(=N)N)C(=O)N[C@@H](CCCNC(=N)N)C(=O)N[C@@H](CCCCN)C(=O)O` [2I8-R-{D-Arg}-RK] (H-PNQSSRAFQGTDHSSDLAFDFLSQQR[dR]RK-OH; N-terminus and C-terminus assumed), 19.7 µM.
Turning to `CC[C@H](C)[C@H](NC(=O)[C@@H]1CCCN1C(=O)[C@H](CO)NC(=O)[C@H](CO)NC(=O)[C@@H](NC(=O)[C@H](CO)NC(=O)[C@H](CC(C)C)NC(=O)[C@H](C)N)[C@@H](C)O)C(=O)N1CCC[C@H]1C(=O)N[C@@H](CO)C(=O)N[C@H](C(=O)N1CCC[C@H]1C(=O)N[C@@H](CCC(N)=O)C(=O)N[C@@H](CO)C(=O)N[C@@H](CCC(N)=O)C(=O)N[C@@H](C)C(=O)N[C@@H](CCC(N)=O)C(=O)N1CCC[C@H]1C(=O)N[C@@H](CCC(N)=O)C(=O)N[C@H](C(=O)NCC(=O)N[C@@H](CO)C(=O)NCC(=O)N[C@@H](C)C(=O)N[C@@H](CO)C(=O)N[C@@H](CCCNC(=N)N)C(=O)N[C@H](CCCNC(=N)N)C(=O)N[C@@H](CCCNC(=N)N)C(=O)N[C@@H](CCCCN)C(=O)O)[C@@H](C)O)C(C)C` [2F3-R-{D-Arg}-RK] (H-ALSTSSPIPSVPQSQAQPQTGSGASR[dR]RK-OH; N-terminus and C-terminus assumed), the IC50 is 29.6 ± 0.6 µM. Also, the IC50 (A549 cells, serum‐free medium, SRB, read-out: IC50, cell proliferation inhibition) was 19.6 µM.
The compound `CC(C)C[C@H](NC(=O)[C@H](CCCNC(=N)N)NC(=O)[C@H](C)NC(=O)[C@H](Cc1c[nH]c2ccccc12)NC(=O)[C@H](CC(C)C)NC(=O)[C@H](CO)NC(=O)[C@@H]1CCCN1C(=O)[C@@H](NC(=O)CNC(=O)[C@H](Cc1ccc(O)cc1)NC(=O)[C@@H](NC(=O)[C@@H](NC(=O)[C@H](CCCNC(=N)N)NC(=O)[C@H](C)NC(=O)[C@H](CCCNC(=N)N)NC(=O)[C@@H]1CCCN1C(=O)[C@H](CC(=O)O)NC(=O)[C@H](CO)NC(=O)[C@@H](NC(=O)CNC(=O)[C@H](CO)NC(=O)[C@@H](NC(=O)[C@H](CC(C)C)NC(=O)[C@H](CC(C)C)NC(=O)[C@H](C)NC(=O)[C@H](CCCCN)NC(=O)[C@H](CCCNC(=N)N)NC(=O)[C@@H](CCCNC(=N)N)NC(=O)[C@@H](N)CCCNC(=N)N)[C@@H](C)O)[C@@H](C)O)C(C)C)[C@@H](C)O)[C@@H](C)O)C(=O)O` [R-{D-Arg}-RK- 1C11] (H-R[dR]RKALLTSGTSDPRARVTYGTPSLWARL-OH; N-terminus and C-terminus assumed) displayed an IC50 of 66.5 ± 3.9 µM.
Compound `Cc1cc(O)cc(C)c1C[C@H](NC(=O)[C@@H](CCCNC(=N)N)NC(=O)[C@H](CC(C)C)NC(=O)[C@H](CCCNC(=N)N)NC(=O)[C@H](C)NC(=O)[C@H](Cc1c[nH]c2ccccc12)NC(=O)[C@H](CC(C)C)NC(=O)[C@H](CO)NC(=O)[C@@H]1CCCN1C(=O)[C@@H](NC(=O)CNC(=O)[C@H](Cc1ccc(O)cc1)NC(=O)[C@@H](NC(=O)[C@@H](NC(=O)[C@H](CCCNC(=N)N)NC(=O)[C@H](C)NC(=O)[C@H](CCCNC(=N)N)NC(=O)[C@@H]1CCCN1C(=O)[C@H](CC(=O)O)NC(=O)[C@H](CO)NC(=O)[C@@H](NC(=O)CNC(=O)[C@H](CO)NC(=O)[C@@H](NC(=O)[C@H](CC(C)C)NC(=O)[C@H](CC(C)C)NC(=O)[C@H](C)N)[C@@H](C)O)[C@@H](C)O)C(C)C)[C@@H](C)O)[C@@H](C)O)C(=O)N[C@@H](CCCN)C(=O)N[C@@H](Cc1ccccc1)C(N)=O` [1C11-D-Arg–Dmt–Orn–Phe] (H-ALLTSGTSDPRARVTYGTPSLWARL[dR][Dmt][Orn]F-NH2; N-terminus and C-terminus assumed) gave an IC50 of 30.3 ± 5.5 µM.
On to `CSCC[C@H](NC(=O)[C@H](CCCNC(=N)N)NC(=O)[C@H](Cc1ccc(O)cc1)NC(=O)[C@H](CC(C)C)NC(=O)[C@H](CCC(=O)O)NC(=O)[C@H](Cc1ccccc1)NC(=O)[C@H](CCCN)NC(=O)[C@H](Cc1c(C)cc(O)cc1C)NC(=O)[C@H](N)CCCNC(=N)N)C(=O)N[C@@H](CO)C(=O)N[C@H](C(=O)N[C@@H](Cc1ccc(O)cc1)C(=O)N[C@@H](CO)C(=O)N[C@H](C(=O)N[C@@H](Cc1ccccc1)C(=O)N1CCC[C@H]1C(=O)N[C@@H](C)C(=O)NCC(=O)N[C@H](C(=O)N1CCC[C@H]1C(=O)N[C@H](C(=O)N[C@@H](CO)C(=O)N[C@@H](CCC(=O)O)C(=O)N[C@@H](CCCNC(=N)N)C(=O)N[C@@H](CO)C(=O)N[C@@H](CC(C)C)C(=O)N[C@@H](C)C(=O)N[C@@H](CCCNC(=N)N)C(=O)N[C@@H](C)C(=O)O)C(C)C)C(C)C)[C@@H](C)O)[C@@H](C)O` [D-Arg–Dmt–Orn–Phe-1E14] (H-[dR][Dmt][Orn]FELYRMSTYSTFPAGVPVSERSLARA-OH; N-terminus and C-terminus assumed), for which the IC50 was > 100 µM.
